Results published in paper PMC11232401, “Characterization of antimalarial activity of artemisinin-based hybrid drugs” (Antimicrobial Agents and Chemotherapy, 2024).

How the values were obtained:
[1] = design: method as in PMID 15124211; settings: cited from earlier work
[2] = elimination half-life; cited from earlier work
P. falciparum = test: Parasite growth inhibition (cell potency); format: cell-based; settings: Plasmodium falciparum; strain and exposure not stated at the place
[3] = Quantification of hybrid 1 in uRBC-derived supernatants by HPLC and fluorescence; format: in vitro ADME, human
Procedure: Each well of 96-well plates was filled with 125 µL drug (1000 nM) and 125 µL uninfected red blood cells (uRBC), which were mixed to obtain a final drug concentration of 500 nM and 2.5% or 1.0% hematocrit. The plates were incubated at 37°C in the standard gas mixture. After each time point (10 min, 6 h, and 24 h), supernatants were carefully harvested and stored at −80°C until use. Untreated uRBC incubated at the same times were used as negative controls, and DHA and AQ were employed as standard drugs. Next, supernatants were diluted in a complete medium in six different dilutions and were aliquoted in new plates. The antimalarial activity of these supernatants and freshly dissolved drugs was determined in an asynchronous parasite culture of P. falciparum (3D7, D10, and W2 strains) for 72 h using the same method described above, and parasite viability was assessed by the pLDH ([38]) and SYBR Green I ([41]) methods. […] Decay in drug concentration was estimated by using the normalized slope values calculated from linear regression fits using the slope values of a standard curve as reference. […]
To test the association between the antimalarial activity of hybrid 1 supernatants and chemical stability, the concentration of hybrid 1 in these supernatants was quantified by high-performance liquid chromatography (HPLC) and fluorescence in a microplate reader. The concentration of hybrid 1 remained constant under incubation with PBS over the analyzed time (Fig. 3E; Fig. S1). […] Moreover, we defined the slopes calculated from linear regression fits to accurately reflect the effective decay in drug concentration because peroxides could covalently bind to proteins present in the supernatant. […]
Figure S1: Quantification of hybrid LH70 (1) by fluorescence and HPLC in the uRBC-derived supernatants. […] The drug was quantified in the supernatant of the cell culture after the second and third steps of medium replacement and washing out. […] RFU = relative fluorescence units.

SMILES | plasma peak of DHA in patients [1] [nM] | half-life (t1/2) [2] [h] | IC50 (P. falciparum) [nM] | concentration of hybrid 1 in supernatant at 24 h ([3]; uRBC hematocrit 2.5%, start 500 nM, HPLC) [nM] | Maximum rate of reduction of drug concentration between 10 min and 24 h, HPLC ([3]; uRBC supernatants, slopes of linear regression fits, HPLC) [%] | Maximum rate of reduction of drug concentration between 10 min and 24 h, fluorescence microplate reader ([3]; uRBC supernatants, slopes of linear regression fits, fluorescence) [%]
C[C@H]1[C@@H](O)O[C@@H]2O[C@@]3(C)CC[C@H]4[C@H](C)CC[C@@H]1[C@@]24OO3 [DHA, dihydroartemisinin, reference compound] | 700 | 1 to 3 | 5 |  |  | 
COCCOCCOCCOCCn1c(-c2ccc(-n3cc(-c4ccc(OC5OC6OC7(C)CCC8C(C)CCC(C5C)C68OO7)cc4)nn3)cc2)nc2ccccc21 (stereo not drawn) [Hybrid 1] |  |  |  | 256 | 56.4 | 65.4
